Measured values taken from patent publication US7507727B2, “Substituted quinobenzoxazine analogs and methods of using thereof” (Cylene Pharmaceuticals, Inc., priority 2003, dated 2009).
Where two headings read alike, the source gives them in different places.

Assays:
[1] = target: c-Myc template DNA (c-myc quadruplex); experiment: Quadruplex binding / stop assay (Taq polymerase arrest, capillary electrophoresis)
From the text: A high throughput polymerase arrest assay has been developed. The assay comprises contacting a template nucleic acid, often DNA, with a primer, which also is often DNA; contacting the primer/template complex with a compound described herein (also referred to as a “test compound”); contacting the primer/template complex with a polymerase; and separating reaction products. The assay often includes the step of denaturing the primer/template complex mixture and then renaturing the complex, which often is carried out before a test molecule is added to the system. Multiple assays often are carried out using varying concentrations of a test compound, such that an IC50 value can be obtained, for example. The reaction products often include extended primers of different lengths.
Thus, the reaction mixture often includes at least two reaction products when a test compound interacts with a quadruplex structure in the template, one having a completely extended primer and one having an incompletely extended primer, and these two reaction products are separated. The products may be separated using any convenient separation method, such as mass spectrometry and in one embodiment, capillary electrophoresis.
In an embodiment, a primer oligonucleotide covalently linked to a fluorescent label is contacted with template DNA. The resulting complex is contacted with a test molecule and then contacted with a polymerase capable of extending the primer. The reaction products then are separated and detected by capillary electrophoresis. A longer primer sequence was used for practicing this embodiment as compared to embodiments where the primer includes no covalently-linked fluorophore or where capillary electrophoresis is not utilized for separation. Deoxynucleotides are added at any stage of the assay before the separation, often when the primer is contacted with the template DNA. The template DNA/primer complex often is denatured (e.g., by increasing the temperature of the system) and then renatured (e.g., by cooling the system) before a test compound is added).
The mixture was denatured at 95° C. for 5 minutes and, after cooling down to room temperature, was incubated at 37° C. for 15 minutes.
After cooling down to room temperature, 1 mM KCl and the test compound (various concentrations) were added and the mixture incubated for 15 minutes at room temperature. The primer extension was performed by adding 10 mM KCl and Taq DNA Polymerase (2.5 U/reaction, Promega) and incubating at 70° C. for 30 minutes. The reaction was stopped by adding 1 μl of the reaction mixture to 10 μl Hi-Di Formamide mixed and 0.25 μl LIZ120 size standard. Hi-Di Formamide and LIZ120 size standard were purchased from Applied Biosystems.
The partially extended quadruplex arrest product was between 61 or 62 bases long and the full-length extended product was 99 bases long. The products were separated and analyzed using capillary electrophoresis. Capillary electrophoresis was performed using an ABI PRISM 3100-Avant Genetic Analyzer.
Stop Assays. […] A fluorescently labeled primer DNA is then annealed to the 3′ end of the template DNA. A DNA polymerase such as Taq polymerase is then introduced to synthesize a complementary strand of DNA by extending from the fluorescently labeled primer. When the progress of the Taq polymerase is unhindered, it synthesizes a full-length copy of the template.
These products are visualized by capillary electrophoresis.

HeLa cells = experiment: MTS cell proliferation and/or cytotoxicity assay; assay type: cell-based, Human
Method: Cell culture. Human cervical epithelial cells (HeLa cells) were obtained from American Type Culture Collection (Manassas, Va.). Cells were grown in Eagle's minimum essential medium (MEM, Hyclone, Utah) supplemented with 2 mM Glutamine, 0.1 mM nonessential amino acid, 1 mM Na Pyruvate, 1.5 g/L NaHCO3, 50 mg/L gentamicin, and 10% fetal bovine serum (Hyclone, USA) in a humidified atmosphere of 5% CO2 at 37° C.
MTS assays. Antiproliferative effects of the compounds were tested by the CellTiter 96 AQueous assay (Promega, WI), which is a calorimetric assay for determining the number of viable cells. (See, e.g., Wang, L., et al., Methods Cell Sci (1996) 18:249-255). In one example, cells (4,500 cells/well) were seeded on 96 well flat bottom plates (Corning, N.Y.) in 100 μl of culture medium without any anticancer drug on day 0, and the culture medium was exchanged for that //contained anticancer drugs at various concentrations on day 1. After incubation for 3 days under normal growth conditions (on day 4), the monolayers were washed once in PBS, and the medium was switched to 100 μl of PBS in each of the 96 well plate. After mixing MTS and PMS at the ratio of 20:1, 20 μl of MTS/PMS solution was added to each of the 96 well plate and incubated for 4 hours in a humidified atmosphere of 5% CO2 at 37° C. The absorbance was read at 490 nm using FLUOstar Galaxy 96 well plate reader (BMG Labtechnologies, Germany). μM concentrations (MTS data) reported in Table 1 are concentrations at which 50% of antiproliferative cell response is seen.

[2] = read-out: Stop Data c-Myc μM, concentration at which 50% of the DNA was arrested (arrested:full-length 1:1)
[3] = Homo sapiens, HeLa, 72 h, concentration at which 50% of antiproliferative cell response is seen, 3 days incubation, read-out: MTS Data Hella
[4] = read-out: S DATA, Table 1D, stop assay data
[5] = Homo sapiens, HeLa, HeLa cells, MTS, read-out: Hela MTS
[6] = concentration at which 50% of antiproliferative cell response is seen, 3 days incubation, read-out: MTS Data Hella

SMILES: CN(C)CCCCNc1c(F)cc2c(=O)c(C(=O)NCCC3CCCN3C)cn3c2c1Oc1cc2c(cc1-3)oc1ccccc12 (stereo not shown) [compound 366]
- IC50 [1, 2]: 0.75 µM
- IC50 (HeLa cells; [3]): 3700 nM

SMILES: NC1CCN(c2c(F)cc3c(=O)c(C(=O)NCCCn4ccnc4)cn4c3c2Oc2cc3c(cc2-4)oc2ccccc23)C1 (stereo not shown) [compound 521]
- IC50 [1, 2]: 0.375 µM
- IC50 (HeLa cells; [3]): 1700 nM

SMILES: O=C(CCN1CCCC1)N[C@@H]1CCN(c2c(F)cc3c(=O)c(C(=O)NCCN4CCOCC4)cn4c3c2Oc2cc3c(cc2-4)oc2ccccc23)C1 [compound 504]
- IC50 [1, 2]: 0.375 µM
- IC50 (HeLa cells; [3]): 3400 nM

SMILES: CC(C)(C)OC(=O)NC1CCN(c2c(F)cc3c(=O)c(C(=O)NCCN4CCCC4)cn4c3c2Oc2cc3c(cc2-4)oc2ccccc23)C1 (stereo not shown) [compound 384]
- IC50 [1, 2]: 0.75 µM
- IC50 (HeLa cells; [3]): 370 nM

SMILES: CN1CCCC1CCNC(=O)c1cn2c3c(c(NCC(O)c4ccccc4)c(F)cc3c1=O)Oc1cc3ccccc3cc1-2 (stereo not shown) [compound 392]
- IC50 [1, 2]: 0.75 µM
- IC50 (HeLa cells; [3]): 190 nM

SMILES: CN1CCCC1CCNC(=O)c1cn2c3c(c(NCCc4ccc(O)cc4)c(F)cc3c1=O)Oc1cc3ccccc3cc1-2 (stereo not shown) [compound 378]
- IC50 [1, 2]: 0.75 µM
- IC50 (HeLa cells; [3]): 2100 nM

SMILES: CCN(CC)CCCC(C)NC(=O)c1cn2c3c(c(N4CCC(c5cnccn5)C4)ccc3c1=O)Oc1ccccc1-2 (stereo not shown) [compound 29]
- IC50 [1, 2]: 3 µM
- IC50 (HeLa cells; [3]): 2000 nM

SMILES: CN1CCN(CCCNC(=O)c2cn3c4c(c(NCCC5CCCN5C)c(F)cc4c2=O)Oc2cc4c(cc2-3)oc2ccccc24)CC1 (stereo not shown) [compound 364]
- IC50 [1, 2]: 0.75 µM
- IC50 (HeLa cells; [3]): 3800 nM

SMILES: O=C(NCCN1CCCC1)c1cn2c3c(c(N4CC5CCCNC5C4)ccc3c1=O)Oc1cc3ccccc3cc1-2 (stereo not shown) [compound 1732]
- IC50 [1, 4]: 0.375 µM
- IC50 (HeLa cells; [5]): 200 nM

SMILES: CN1CCCC1CCNC(=O)c1cn2c3c(c(NCCCN(CCO)CCO)c(F)cc3c1=O)Oc1cc3ccccc3cc1-2 (stereo not shown) [compound 534]
- IC50 [1, 2]: 0.375 µM
- IC50 (HeLa cells; [3]): 400 nM

SMILES: O=C(NCCN1CCCC1)c1cn2c3c(c(N4CC5CCCNC5C4)c(F)cc3c1=O)Oc1cc3ccccc3cc1-2 (stereo not shown) [compound 545]
- IC50 [1, 2]: 0.375 µM
- IC50 (HeLa cells; [3]): 150 nM

SMILES: CC1(C)CC(NC(=O)c2cn3c4c(c(N5CCC(N)C5)c(F)cc4c2=O)Oc2cc4ccccc4cc2-3)CC(C)(C)N1 (stereo not shown) [compound 539]
- IC50 [1, 2]: 0.375 µM
- IC50 (HeLa cells; [3]): 280 nM

SMILES: CN(C)CCCCNC(=O)c1cn2c3c(c(N4CC[C@@H](NC(=O)CCN5CCN(C)CC5)C4)c(F)cc3c1=O)Oc1cc3c(cc1-2)oc1ccccc13 [compound 357]
- IC50 [1, 2]: 0.75 µM
- IC50 (HeLa cells; [3]): 8600 nM

SMILES: CN1CCCC1CCNC(=O)c1cn2c3c(c(NCCc4ccc(O)cc4)c(F)cc3c1=O)Oc1cc3ccccc3cc1-2 (stereo not shown) [compound 1681]
- IC50 [1, 4]: 0.75 µM
- IC50 (HeLa cells; [5]): 2100 nM

SMILES: O=C(NCCN1CCCC1)c1cn2c3c(c(NCCCN4CCOCC4)c(F)cc3c1=O)Oc1cc3c(cc1-2)-c1ccccc1C3 [compound 373]
- IC50 [1, 2]: 0.75 µM
- IC50 (HeLa cells; [3]): 3300 nM

SMILES: N[C@H]1CCN(c2c(F)cc3c(=O)c(C(=O)NCCN4CCCC4)cn4c3c2Oc2ccccc2-4)C1 [compound 35]
- IC50 [1, 2]: 3 µM
- IC50 (HeLa cells; [6]): 210 nM

SMILES: CN1CCCC1CCNC(=O)c1cn2c3c(c(N4CCC(CCCC5CCNCC5)CC4)c(F)cc3c1=O)Oc1cc3ccccc3cc1-2 (stereo not shown) [compound 1494]
- IC50 [1, 4]: 0.375 µM
- IC50 (HeLa cells; [5]): 310 nM

SMILES: CN1CCCC1CCNc1c(F)cc2c(=O)c(C(=O)NCCN3CCOCC3)cn3c4cc5c(cc4oc1c23)c(=O)c1ccccc15 (stereo not shown) [compound 517]
- IC50 [1, 2]: 0.375 µM
- IC50 (HeLa cells; [3]): 2200 nM

SMILES: CN1CCCC1CCNC(=O)c1cn2c3c(c(NCCc4ccc(O)c(O)c4)c(F)cc3c1=O)Oc1cc3ccccc3cc1-2 (stereo not shown) [compound 381]
- IC50 [1, 2]: 0.75 µM
- IC50 (HeLa cells; [3]): 1800 nM

SMILES: N[C@H]1CCN(c2c(F)cc3c(=O)c(C(=O)NCCN4CCCC4)cn4c3c2Oc2cc3ccccc3cc2-4)C1 [compound 341]
- IC50 [1, 2]: 0.9 µM
- IC50 (HeLa cells; [3]): 280 nM

SMILES: CCN(C)CCCC(C)NC(=O)c1cn2c3c(c(NCCN4CCCC4)ccc3c1=O)Oc1cc3ccccc3cc1-2 (stereo not shown) [compound 543]
- IC50 [1, 2]: 0.375 µM
- IC50 (HeLa cells; [3]): 200 nM

SMILES: CN(C)CCCCNC(=O)c1cn2c3c(c(N4CCC(N)C4)ccc3c1=O)Oc1cc3ccccc3cc1-2 (stereo not shown) [compound 1559]
- IC50 [1, 4]: 0.18 µM
- IC50 (HeLa cells; [5]): 240 nM

SMILES: CN1CCCC1CCNC(=O)c1cn2c3c(c(NC[C@H]4CCCO4)c(F)cc3c1=O)Oc1cc3ccccc3cc1-2 (stereo partly shown) [compound 38]
- IC50 [1, 2]: 2.5 µM
- IC50 (HeLa cells; [6]): 260 nM

SMILES: N[C@H]1CCN(c2c(F)cc3c(=O)c(C(=O)NCCN4CCOCC4)cn4c5cc6c(cc5oc2c34)c(=O)c2ccccc26)C1 [compound 579]
- IC50 [1, 2]: 0.18 µM
- IC50 (HeLa cells; [3]): 490 nM

SMILES: CCN(CC)CCCC(C)NC(=O)c1cn2c3c(c(N4CCC(c5cnccn5)C4)c(F)cc3c1=O)Oc1cc3ccccc3cc1-2 (stereo not shown) [compound 27]
- IC50 [1, 2]: 3 µM
- IC50 (HeLa cells; [3]): 3800 nM

SMILES: CN1CCCC1CCNC(=O)c1cn2c3c(c(N4CCC(N)C4)c(F)cc3c1=O)Oc1cc3ccccc3cc1-2 (stereo not shown) [compound 472]
- IC50 [1, 2]: 0.62 µM
- IC50 (HeLa cells; [6]): 3300 nM

SMILES: CN1CCN(CCCNc2c(F)cc3c(=O)c(C(=O)NCCCn4ccnc4)cn4c3c2Oc2cc3c(cc2-4)oc2ccccc23)CC1 [compound 481]
- IC50 [1, 2]: 0.5 µM
- IC50 (HeLa cells; [3]): 3600 nM

SMILES: O=C(NCCN1CCCC1)c1cn2c3c(c(NCC4CCCO4)c(F)cc3c1=O)Oc1cc3ccccc3cc1-2 (stereo not shown) [compound 31]
- IC50 [1, 2]: 3 µM
- IC50 (HeLa cells; [3]): 1400 nM

SMILES: O=C(NCCN1CCCC1)c1cn2c3cc4c(=O)c5ccccc5c(=O)c4cc3oc3c(NCCN4CCCC4)c(F)cc(c1=O)c32 [compound 568]
- IC50 [1, 2]: 0.22 µM
- IC50 (HeLa cells; [3]): 4100 nM

SMILES: O=C(CN1CCCC1)N[C@@H]1CCN(c2c(F)cc3c(=O)c(C(=O)NCCN4CCCC4)cn4c3c2Oc2cc3c(cc2-4)oc2ccccc23)C1 [compound 506]
- IC50 [1, 2]: 0.375 µM
- IC50 (HeLa cells; [3]): 3400 nM

SMILES: CC1CCCCN1CCCNC(=O)c1cn2c3c(c(N4CCC(N)C4)c(F)cc3c1=O)Oc1cc3ccccc3cc1-2 (stereo not shown) [compound 387]
- IC50 [1, 2]: 0.75 µM
- IC50 (HeLa cells; [3]): 330 nM

SMILES: CCN(CC)CCCC(C)NC(=O)c1cn2c3c(c(N4CCC(c5cnccn5)C4)c(F)cc3c1=O)Oc1ccccc1-2 (stereo not shown) [compound 28]
- IC50 [1, 2]: 3 µM
- IC50 (HeLa cells; [3]): 2500 nM

SMILES: CN(C)CCCCNC(=O)c1cn2c3c(c(N4CC[C@@H](N)C4)c(F)cc3c1=O)Oc1ccccc1-2 [compound 106]
- IC50 [1, 2]: 1.75 µM
- IC50 (HeLa cells; [3]): 2500 nM

SMILES: CN1CCN(c2c(F)cc3c(=O)c(C(=O)NCCN4CCCC4)cn4c5cc6c(=O)c7ccccc7c(=O)c6cc5oc2c34)CC1 [compound 340]
- IC50 [1, 2]: 0.9 µM
- IC50 (HeLa cells; [3]): 8500 nM

SMILES: CN(C)CCCCNC(=O)c1cn2c3cc4c(cc3oc3c(NCCCN5CCOCC5)c(F)cc(c1=O)c32)c(=O)c1ccccc14 [compound 519]
- IC50 [1, 2]: 0.375 µM
- IC50 (HeLa cells; [3]): 2100 nM

SMILES: Nc1c(F)c(NCCCN2CCOCC2)c2c3c1c(=O)c(C(=O)NCCN1CCCC1)cn3-c1cc3ccccc3cc1O2 [compound 377]
- IC50 [1, 2]: 0.75 µM
- IC50 (HeLa cells; [3]): 2200 nM

SMILES: CN(C)CCCCNC(=O)c1cn2c3cc4oc5cc([N+](=O)[O-])ccc5[nH]c4cc3oc3c(NCCN4CCCC4)c(F)cc(c1=O)c32 [compound 359]
- IC50 [1, 2]: 0.75 µM
- IC50 (HeLa cells; [3]): 4800 nM

SMILES: NC1CCN(c2c(F)cc3c(=O)c(C(=O)NCCN4CCCC4)cn4c3c2Oc2cc(Cl)ccc2-4)C1 (stereo not shown) [compound 1800]
- IC50 [1, 4]: 2.6 µM
- IC50 (HeLa cells; [5]): 180 nM

SMILES: CN(C)CCCCNC(=O)c1cn2c3c(c(N4CCC(N)C4)c(F)cc3c1=O)Oc1cc3c(cc1-2)Cc1ccccc1-3 (stereo not shown) [compound 532]
- IC50 [1, 2]: 0.375 µM
- IC50 (HeLa cells; [3]): 440 nM

SMILES: CN1CCCC1CCNC(=O)c1cn2c3c(c(N)c(F)cc3c1=O)Oc1c-2ccc2ccccc12 (stereo not shown) [compound 1763]
- IC50 [1, 4]: 1.5 µM
- IC50 (HeLa cells; [5]): 3800 nM

SMILES: CN(C)CCCCNC(=O)c1cn2c3cc4c(cc3oc3c(NCCCCN(C)C)c(F)cc(c1=O)c32)c(=O)c1ccccc14 [compound 576]
- IC50 [1, 2]: 0.18 µM
- IC50 (HeLa cells; [3]): 2100 nM
